Laboratory results taken from ChEMBL document CHEMBL1156829 (Proc Natl Acad Sci U S A, 2008).

What was measured:
Plasmodium falciparum [1] = assay: NOVARTIS: Inhibition of Plasmodium falciparum W2 (drug-resistant) proliferation in erythrocyte-based infection assay; format: functional, organism-based; settings: Plasmodium falciparum, W2; read-out: EC50
Plasmodium falciparum [2] = assay: NOVARTIS: Inhibition of Plasmodium falciparum 3D7 (drug-susceptible) proliferation in erythrocyte-based infection assay; format: functional, organism-based; settings: Plasmodium falciparum, 3D7
[3] = NOVARTIS: Cytotoxicity against human hepatocellular carcinoma cell line (Huh7); format: toxicity, cell-based, Huh-7; settings: Huh7 cells (hepatocellular carcinoma cell line)

| SMILES | EC50 (Plasmodium falciparum [1]) [nM] | EC50 (Plasmodium falciparum [2]) [nM] | CC50 [3] [nM] |
| --- | --- | --- | --- |
| CCN(CC)CCCC(C)N=c1[nH]c(C=Cc2ccccc2OC)nc2cc(Cl)ccc12 (stereo unspecified) | 160 | 30.8 | 7930 |
| CN(C)c1ccc(/C=C2/SC(=Nc3ccccc3)NC2=O)cc1 | 200 | 109 | > 10000 |
| CC(=O)NC(CO)C(O)c1ccc([N+](=O)[O-])cc1 (stereo unspecified) | 2050 | > 9720 | > 100000 |
| COc1ccc(Nc2nc(NN=Cc3cc(Br)c(O)cc3O)nc(Nc3ccc([N+](=O)[O-])cc3)n2)cc1 | 198 | 75 | 9580 |
| CO[C@H](C(=O)[C@@H](O)[C@@H](C)O)[C@@H]1Cc2cc3cc(O[C@H]4C[C@@H](O[C@@H]5C[C@@H](O)[C@@H](O)[C@@H](C)O5)[C@@H](O)[C@H](C)O4)c(C)c(O)c3c(O)c2C(=O)[C@H]1O[C@H]1C[C@@H](O[C@H]2C[C@@H](O[C@H]3C[C@](C)(O)[C@@H](O)[C@H](C)O3)[C@H](O)[C@@H](C)O2)[C@H](O)[C@H](C)O1 | 208 | 497 | > 10000 |
| C(=NNc1nc2ccccc2[nH]1)c1c[nH]c2ccccc12 | 391 | 330 | 19200 |
| COc1ccc2c(c1)OC(O)(C(F)(F)C(F)(F)F)CC2=O (stereo unspecified) | 1000 | 442 | 49700 |
| CCCCCCc1ccc(C(=O)N(C)CCCNc2ccnc3cc(Cl)ccc23)cc1 | 219 | 670 | > 10800 |
| CC[n+]1c(/C=C/c2cc(Br)ccc2OC)ccc2ccccc21 | 202 | 155 | > 10000 |
| CCN(CC)S(=O)(=O)c1ccc(C(=O)c2c(C)c(C(=O)C(F)(F)F)c3ccccn23)cc1 | 2020 | 3150 | > 100000 |
| CCN(CC)c1cc2oc3cc(=[N+](CC)CC)ccc-3nc2c2ccccc12 | 826 | 865 | 39800 |
| COc1ccc2nc(C)cc(Nc3ccc(N4CCN(C)CC4)cc3)c2c1 | 153 | 83.2 | 7330 |
| CCOC(=O)c1c(C)n(-c2ccccc2)c2ccc(OC(=O)c3ccccc3NC(=O)C(C)C)cc12 | 1990 | 885 | > 100000 |
| CC(=O)N(C)C1=C(N2CCCC2)C(=O)c2ccccc2C1=O | 299 | 516 | 15000 |
| CN(CCCNc1ccnc2cc(Cl)ccc12)C(=O)C1CCC1 | 93 | 192 | 4570 |
| Nc1ncc(Br)cc1S(=O)(=O)NCCC(=O)N1CC=C(c2ccccc2)CC1 | 1020 | 384 | 48900 |
| O=C(NCCc1ccccc1)c1cnc(NCCCn2ccnc2)nc1NCC1CCCCC1 | 208 | 91.4 | > 10000 |
| O=C(C=Cc1ccc(Br)cc1)NC(=O)c1ccccc1O | 2040 | 684 | > 100000 |
| CCc1ccccc1-n1c(C(C)N(C)C(=O)/C=C/c2ccc([N+](=O)[O-])cc2)nc2ccccc2c1=O (stereo unspecified) | 174 | 266 | 8350 |
| CSC1=NC(=Nc2ccccc2C)C2(CCC(C(C)(C)C)CC2)N1c1ccc(O)cc1 (stereo unspecified) | 208 | 243 | > 10000 |
| O=C(C=Cc1ccccc1)Nc1ccc(-c2nc3cc(NC(=O)C=Cc4ccccc4)ccc3[nH]2)cc1 | 116 | 56 | 5700 |
| O=C1[C@H]2Cc3c([nH]c4ccccc34)C(CCc3ccccc3)N2C(=O)CN1CCc1c[nH]c2ccccc12 (stereo partly specified) | 208 | 1350 | > 10000 |
| CCN1CCN(c2cc(C)c3cc(NC(=O)C=Cc4cccc(Cl)c4)ccc3n2)CC1 | 1260 | 824 | 61400 |
| CC(=O)N(C1=C(N(C)C)C(=O)c2ccccc2C1=O)c1cccc(Cl)c1 | 64.9 | 27.3 | 3180 |
| CSc1cccc([C@@H]2C[C@H]3CN(c4ccccc4)C(=O)[C@]34CCCN24)c1 | 480 | 1210 | 23500 |
| CCCCCc1ccc(C(=O)N(C)CCCNc2ccnc3cc(Cl)ccc23)cc1 | 310 | 250 | 15100 |

| SMILES | EC50 (Plasmodium falciparum [1]) [nM] | EC50 (Plasmodium falciparum [2]) [nM] | CC50 [3] [nM] |
| --- | --- | --- | --- |
| CC(C)c1ccc(C=CC(=O)NCc2ccco2)cc1 | 2000 | 1480 | > 100000 |
| O=c1c2[nH]c3ccccc3c2ncn1Cc1ccc2c(c1)OCO2 | 2000 | > 12500 | > 100000 |
| Cc1nc(-c2ccc[n+](C)c2)sc1C(=O)/C=C/c1ccc(Cl)cc1 | 200 | 283 | > 10000 |
| CN(CCCNc1ccnc2cc(Cl)ccc12)S(=O)(=O)c1cc(Cl)ccc1Cl | 251 | 398 | > 12200 |
| Cc1ccc(OCC(=O)Nc2cccc(-c3nc4ncccc4o3)c2)cc1C | 2050 | 1900 | > 100000 |
| COc1ccc(CN2CCN(C(=O)c3cccnc3)CC2)cc1OC | 2010 | 349 | > 100000 |
| COc1cc(-c2nc(-c3ccccc3)c(-c3cccc(C(F)(F)F)c3)[nH]2)cc(OC)c1O | 902 | 622 | 44900 |
| FC(F)(F)c1ccc(-c2nc(C34CC5CC(CC(C5)C3)C4)cs2)cc1 | 200 | 1570 | > 10000 |
| CCN(CC)CCCNC(=S)N(CCN(C)C)Cc1cc2cc(C)cc(C)c2[nH]c1=O | 2000 | 2420 | > 100000 |
| Fc1ccc(C(CCNc2ncnc3c2[nH]c2ccccc23)c2ccco2)cc1 (stereo unspecified) | 419 | 216 | 20200 |
| Cc1cccc(C)c1NC(=O)CN1C(=O)C(C)(C)Oc2ccc(C(=O)NC(C)(C)C)cc21 | 2070 | > 9240 | > 100000 |
| Cc1cc(N2CCN(C)CC2)nc2ccc(NC(=O)Nc3ccccc3Cl)cc12 | 2060 | 3100 | > 100000 |
| Cc1noc(-c2ccc(O)cc2O)c1-c1ccc2c(c1)OCCCO2 | 209 | 470 | > 10000 |
| O=C(Nc1ccc(-c2nc3cc(NC(=O)c4cccs4)ccc3[nH]2)cc1)c1cccs1 | 2010 | 1550 | > 100000 |
| O=C(CSc1ccc(Cl)cc1)NN=C1C(=O)Nc2ccccc21 | > 1990 | > 12500 | > 100000 |
| C=C[C@H]1CN2CC[C@H]1C[C@@H]2[C@@H](OC(=O)C(C)C)c1ccnc2ccccc12 | 199 | 318 | > 10000 |
| CCOc1ccc(CCN2C(=S)N(c3cccc(C(F)(F)F)c3)C(=O)C2CC(=O)Nc2ccc(C(=O)OC)cc2)cc1OCC (stereo unspecified) | 580 | 1740 | 28500 |
| CC(=O)N(C)C1=C(N2CCCCCC2)C(=O)c2ccccc2C1=O | 38.6 | 35.8 | 1860 |
| COc1cc(NCCCC(C)Nc2ccnc3cc4ccccc4cc23)c2ncccc2c1 (stereo unspecified) | 49.9 | 83.5 | 2470 |
| CCCn1nc(NS(C)(=O)=O)c2cc3cccc(C)c3nc21 | 2020 | > 9100 | > 100000 |
| Cc1ncc([N+](=O)[O-])n1CCOC(=O)c1c(NC(=O)c2ccccc2)sc2c1CCCC2 | 2000 | 2600 | > 100000 |
| Cc1ccc(C)n1-c1ccc(C(=O)N2CCC(C)CC2)cc1 | 2040 | 5120 | > 100000 |
| CCOc1ccc2ncc(S(=O)(=O)c3ccc(OC)cc3)c(N3CCN(C)CC3)c2c1 | 2080 | 100 | > 100000 |
| Cc1nc2c(C)c(-c3ccccc3)nn2c(O)c1C | 2080 | 1020 | > 100000 |
| CCOc1ccc2nc3cc(NCc4ccco4)ccc3c(N)c2c1 | 757 | 846 | 37900 |
| CCCCNC(=O)C(CC)Sc1nnc(-c2ccc(C)cc2)c(-c2ccc(C)cc2)n1 (stereo unspecified) | 2050 | 471 | > 100000 |
